From US9428452B2, “Compounds” (Glaxo Group Limited, priority 2012, dated 2016) come the findings set out here.

Holding throughout (assay type): cell-based
The test system of assay [1] is IL-17A secreted from antiCD3/CD28 stimulated Peripheral Blood Mononuclear cells (PBMC). Kind of assay: Peripheral Blood Mononucleocyte Cell Assay (PBMC Assay - IL-17). The note with it: Homo sapiens, 48 h, IL-17A release, read-out: mean pIC50 (converted). On the procedure:
Peripheral Blood Mononucleocvte Cell Assay (PBMC Assay—IL-17) […]
This assay is designed to measure levels of IL-17A secreted from antiCD3/CD28 stimulated frozen Peripheral Blood Mononuclear cells (PBMC) isolated from human blood with the aim of identifying inhibitors of IL-17A release.
2. The compounds for screening are dispensed into a master plate at 10 mM top concentration which are serially diluted 1:3 across 11 points in DMSO, then 500 nL is transferred into a 384-well flat-bottomed Greiner plate to which 50 uL of cell suspension is added: for the single shot screening the highest concentration of compound is 10^−5M; for 11 point full curve dose response studies the highest concentration is 10^−4 M.
As a low control, DMSO (as supplied, for example, by VWR) (final concentration 1%) in column 6 (16 points).
As a high control, 5-(4-fluorophenyl)-2-ureidothiophene-3-carboxamide (obtainable from, for example, Sigma) at a final concentration of 10^−4 M in DMSO should be used in column 18 (16 points).
9. Make the cell suspension at the concentration 8×10^5 cells/mL to give a final number of 40,000 cells/well.
1. Add well mixed CD3/CD28 Dynabeads (as supplied, for example, by Dynal) to achieve ratio bead:cell=2:1 (ie. a dilution of 1 in 20). Mix thoroughly.
2. Dispense the suspension into the 384 Assay Plates using Multidrop (50 uL per well). If the volume of cell suspension is large, mix the suspension after dispensing into every other plate.
3. Cover the plates with the lids and place them to the humidified incubator (37° C., 5% CO2) for 48 hours.
1. Transfer 10 uL of supernatants from assay plates to the MSD plates using Cybiwell. Ensure that all wells are covered with the solution. Tap the plate gently, if some of the wells are not covered with the supernatant.
3. Add 10 uL of MSD IL-17 detecting antibody using multidrop (1 ug/mL in D-PBS without Ca^2+ and Mg^2+ (supplied, for example, by Gibco)).
4. Cover the plates with adhesive foil and incubated with shaking for 3 hours at room temperature
7. Add 35 uL of MSD Read Buffer T×2 using multidrop.
8. Read plates on MSD MA6000 reader using the 384 well plate protocol as per manufacturer's instructions.

The subject of the next assay is IL-17F mRNA expression. In words: Ex-vivo human skin model, IL-17F mRNA expression. As to conditions: four different donors, compound 10 μM. On the procedure:
(§1) Fresh ex vivo human skin from healthy bariatric patients, that underwent abdominoplasty skin removal, was de-fatted and dermatomed at 750 μm. Dermatomed skin was incubated twice for 5-10 minutes at room temperature in PBS containing a antibiotic/antimycotic solution: Fungizone (Invitrogen #15290018), PSG (Fisher #BW17718R) and Gentamicin (Invitrogen #15750060). Skin was treated aseptically from this point on. Individual skin samples were obtained by 10 mm punch biopsy and placed in a 0.4 μm PCF membrane transwell (Millicell #PIHP01250) containing 30 μl of a 64% bovine collagen solution. After a 30 minute incubation at 37° C., which allows the collagen solution time to set, skin samples on transwells were transferred to 6-well plates (1 sample per well) and the lower chamber filled with 1 ml complete media (Cornification Media)+hydrocortisone (final concentration of 0.4 μg/ml) with or without test compounds at 10 μM (day −3) and allowed to rest overnight (16-18 h) at 37° C. Next, media was aspirated from the lower chamber, replaced with 1 ml complete media without hydrocortisone and incubated at 37° C. for 1 h. This constituted a ‘wash’ step. Following the hydrocortisone washout, media was again aspirated from the lower chamber and replaced with 1.0 ml complete media without hydrocortisone with or without GSK compounds at 10 μM (day −2). Cultures were incubated at 37° C. in a humidified chamber and media was refreshed one more day (day-1). The following day (day-0), cultures were stimulated for 24 h with a freshly made Th17 cytokine cocktail (CD3, 1 μg/ml, CD28, 2 μg/ml, IL-1b, 10 ng/ml, IL-6, 5 ng/ml, TGFb, 1 ng/ml, IL-21, 10 ng/ml, anti-IL-4, 1 μg/ml and anti-INFg, 1 μg/ml) with or without test compounds at 10 μM. Upon harvest (day +1), skin samples were minced with a razor blade and transferred to 1.5 ml RNAse-free tubes with 1 ml RNAlater solution until later analysis by RT-PCR (stored at −80 C).
(§2) Total RNA was isolated from about 30-40 mg of tissue using Qiagen's (Cat #74106) Mini RNA Isolation kit. Briefly, tissue was homogenized in the Precellys-24 machine using 300 μL of RLT buffer supplemented with 1% 2-Beta-Mercapto-Ethanol at 6300 rpm for 30 seconds for 6 cycles with a 2-minute ice break. 600 μL of water containing Proteinase K was added to the homogenate and digested at 55 C for 15 minutes. Digested tissue was spun down for 3 minutes at 10,000×g and the supernantant was used for RNA isolation using Qiagen's RNeasy mini columns according to manufacturer's protocol. 100 ng of RNA was used as template in a 20 μL PCR volume using Applied Biosciences RNA-to-CT 1 Step kit (AB Catalog #4392938) as well as the specific TaqMan probe for each gene to be quantified. Life Technologies FAM labeled Probes Catalog Numbers are as follows: ACTb=Hs01060665_g1, IL-17A=Hs00174383_m1, IL-17F=Hs00369400_m1, IL-22=Hs01574154_m1. All probes used (except for ACTb) expand an Exon. Applied Biosciences' Master Mix has a ROX dye internal control. OneStepPlus PCR machine was used for both the RT step and the 40 amplification cycles. RNA levels of gene of interest's relative expression were calculated using the Delta Delta CT formula.
(§3) First delta: Normalized to ACTb gene expression
(§4) Second delta: Normalized to sample 13 (Day 0+DMSO) for the gene of interest.

Another assay has as its system IL-17A mRNA expression. In words: Ex-vivo human skin model, IL-17A mRNA expression. The note with it: four different donors, compound 10 μM. On the procedure:
as §1, §2, §3, §4

A further assay has as its system IL-22 mRNA expression. Kind of assay: Ex-vivo human skin model, IL-22 mRNA expression. The note with it: four different donors, compound 10 μM. On the procedure:
as §1, §2, §3, §4

Where a name gives a salt, the structure may show the parent alone. A value given as a limit tells only on which side of the number the result lay.

Regarding `Cc1ccc(N(CC(C)C)S(=O)(=O)c2ccc(C(O)CN3CCOCC3)cc2C)c(C)c1` (stereo not shown) [Example E88], in assay [1], the IC50 was under 1000 nM.
With `Cc1ccc(N(CC(C)C)S(=O)(=O)c2ccc(OCC3(C)COCC(=O)N3)cc2)c(C)c1` (stereo not shown) [Example E11], in assay [1], the IC50 was under 1000 nM.
For `Cc1ccc(N(CC(C)C)S(=O)(=O)c2ccc(OCC3CCNCC3)cc2)c(C)c1` [Example E8, N-(2,4-dimethylphenyl)-N-isobutyl-4-(piperidin-4-ylmethoxy)benzenesulfonamide, Trifluoroacetic acid salt], the IC50 in assay [1] was under 1000 nM.
In the case of `Cc1ccc(N(CC(C)C)S(=O)(=O)c2ccc(N3CCOCC3)cc2)c(C)c1` [Example E33], the IC50 in assay [1] was under 1000 nM.
As to `CCc1ccc(N(CC(C)C)S(=O)(=O)c2ccc(C(O)CN3CCOCC3)cc2)cc1` (stereo not shown) [Example E113, N-(4-ethylphenyl)-4-(1-hydroxy-2-morpholinoethyl)-N-isobutylbenzenesulfonamide], the IC50 in assay [1] was under 1000 nM.
Regarding `Cc1ccc(N(CC(C)C)S(=O)(=O)c2ccc(C(O)CN3CCOCC3)cc2)c(C)c1` (stereo not shown) [Example E120, N-(2,4-dimethylphenyl)-4-(1-hydroxy-2-morpholinoethyl-N-isobutylbenzenesulfonamide hydrochloride], the IC50 in assay [1] is under 1000 nM.
Same read-out and setting: with `Cc1ccc(N(CC(C)C)S(=O)(=O)c2ccc(OC[C@H]3NCCO[C@@H]3C)cc2)c(C)c1` [Example E36] the figure was under 1000 nM; with `Cc1ccc(N(CC(C)C)S(=O)(=O)c2ccc(C(O)CN3CCOCC3)c(F)c2)c(C)c1` (stereo not shown) [Example E87], under 1000 nM.
For `CCc1ccc(N(CC(C)C)S(=O)(=O)c2ccc(OCC3CCOCC3)c(CO)c2)cc1` [Example E124, N-(4-ethylphenyl)-3-(hydroxymethyl)-N-isobutyl-4-((tetrahydro-2H-pyran-4-yl)methoxy)benzenesulfonamide], the “gene transcription of il17f (result in words)” value in the assay on IL-17F mRNA expression was “inhibited”. Also, the “gene transcription of il17a (result in words)” value with IL-17A mRNA expression is “inhibited”. Further, the “gene transcription of il22 (result in words)” value with IL-22 mRNA expression is “inhibited”.
`Cc1ccc(N(CC(C)C)S(=O)(=O)c2ccc(OCC3CCC(C)CC3)cc2)c(C)c1` (stereo not shown) [Example E47]: the IC50 in assay [1] is over 100000 nM.
Take `Cc1ccc(N(CC(C)C)S(=O)(=O)c2ccc(C(O)CN3CCOCC3)c(C)c2)c(C)c1` (stereo not shown) [Example E90, N-(2,4-dimethylphenyl)-4-(1-hydroxy-2-morpholinoethyl)-N-isobutyl-3-methylbenzenesulfonamide]: the IC50 in assay [1] is under 1000 nM.
As for `Cc1ccc(N(CC(C)C)S(=O)(=O)c2ccc(C(CO)N3CCOCC3)c(C)c2)c(C)c1` (stereo not shown) [Example E89, N-(2,4-dimethylphenyl)-4-(2-hydroxy-1-morpholinoethyl)-N-isobutyl-3-methylbenzenesulfonamide], the IC50 in assay [1] was under 1000 nM.
Turning to `Cc1ccc(N(CC(C)C)S(=O)(=O)c2ccc(C(O)CN3CCOCC3)c(Cl)c2)c(C)c1` (stereo not shown) [Example E84], the IC50 in assay [1] was under 1000 nM.
With `Cc1ccc(N(CC(C)C)S(=O)(=O)c2ccc(C(O)CN3CCOCC3)cc2)c(C)c1` (single isomer, unassigned) [Example E122, N-(2,4-dimethylphenyl)-4-(1-hydroxy-2-morpholinoethyl)-N-isobutylbenzenesulfonamide], the IC50 in assay [1] was under 1000 nM.
